Patent publication US10934326B2, “Peripheral modifications on pocket-redesigned vancomycin analogs synergistically improve antimicrobial potency and durability” (priority 2016, dated 2021)
“Also recorded” adds a separate entry of the source. Read-outs that look alike come from different tables or passages of the source.

Tests used:
[1] = test system: vancomycin-resistant Enterococcus faecalis (VanA VRE, BM4166); assay: In vitro antimicrobial assay (MIC), VanA E. faecalis; format: cell-based; details: for antibiotic susceptibility profile of the strain: VanA E. faecalis BM 4166
Text: (§1) One day before a study was run, fresh cultures of vancomycin-sensitive Staphylococcus aureus (VSSA strain ATCC 25923), methicillin and oxacillin-resistant Staphylococcus aureus subsp. aureus (MRSA strain ATCC 43300), vancomycin-resistant Enterococcus faecalis (VanA VRE, BM4166), Enterococcus faecium (VanA VRE, ATCC BAA-2317), vancomycin-resistant Enterococcus faecalis (VanB VRE, strain ATCC 51299), Escherichia coli (ATCC 25922), Acinetobacter baumannii (ATCC BAA-1710), Pseudomonas aeruginosa (ATCC 15442), Klebsiella pneumoniae (ATCC 700603) were inoculated and grown in an orbital shaker at 37° C. in 100% Mueller-Hinton broth (VSSA, MRSA and VanB VRE), 100% brain-heart infusion broth (VanA VRE, A. baumannii and K. pneumoniae) or 100% Luria broth (E. coli and P. aeruginosa). After 24 hours, the bacterial stock solutions were serially diluted with the culture medium (10% Mueller-Hinton broth for VSSA, MRSA and VanB VRE or 10% brain-heart infusion broth for VanA VRE A. baumannii and K. pneumoniae or 10% Luria Broth for E. coli and P. aeruginosa) to achieve a turbidity equivalent to a 1:100 dilution of a 0.5 M McFarland solution. This diluted bacterial stock solution was then inoculated in a 96-well V-shaped glass coated microtiter plate, supplemented with serial diluted aliquots of the antibiotic solution in DMSO (4 μL), to achieve a total assay volume of 0.1 mL. The plate was then incubated at 37° C. for 18 hours, after which minimal inhibitory concentrations (MICs) were determined by monitoring the cell growth (observed as a pellet) in the wells.
(§2) The lowest concentration of antibiotic (in μg/mL) capable of eliminating cell growth in the wells is the reported MIC value. The reported MIC values for the vancomycin analogues were determined against vancomycin as a standard in the first well.*
(§3) [*Clinical and Laboratory Standards Institute. Methods for Dilution Antimicrobial Susceptibility Tests for Bacteria That Grow Aerobically; Approved Standard, 7th ed.; CLSI document M07-A8; Clinical and Laboratory Standards Institute: Wayne, Pa., 2009.]

[2] = test system: Enterococcus faecium (VanA VRE, ATCC BAA-2317); assay: In vitro antimicrobial assay (MIC), VanA E. faecium; format: cell-based
Text: as §1, §2, §3

[3] = test system: VanA VRE (E. faecalis BM 4166 and E. faecium ATCC BAA-2317); assay: Cell wall biosynthesis inhibition assay (accumulation of UDPMurNAc-pp 19); format: cell-based, Enterococcus faecalis; Enterococcus faecium; details: 35 μg/mL, tetracycline pretreated VanA VRE, 30 minutes, 37° C.
Text: The inhibition of bacterial cell wall synthesis was established in an assay that quantitates the accumulation of the peptidoglycan precursor UDP-N-acetyl-muramyl-depsipentapeptide (Compound 19, UDPMurNAc-pp), resulting from inhibited cell wall incorporation following antibiotic treatment. […] This procedure was reduced in scale and modified to enlist reverse-phase HPLC separation, UV detection, and calibration curve determination of the amount of isolated 19, permitting use with limited sample sizes. A larger scale isolation and full characterization of 19 provided the material needed to establish a linear calibration curve.
The bacterial suspension was heated at 100° C. for 15 minutes to release cytosolic 19. The entire supernatant was analyzed by semi-preparative reverse-phase HPLC with a single injection and the amount of 19 was quantitated with use of the calibration curve.
Cultures of vancomycin-resistant Enterococcus faecalis (VanA VRE, BM4166) and Enterococcus faecium (VanA VRE, ATCC BAA-2317) were inoculated and grown in an orbital shaker at 37° C. in 100% brain-heart infusion broth for 12 hours. The above bacterial solution was subjected to a subculture to obtain fresh mid-log phase bacterial cells (total volume of bacterial suspension=5 mL, incubation time=6 hours, OD600=0.6). […] Vancomycin analogues were added and the mixture was incubated at 37° C. for a further 30 minutes.
After the bacteria were harvested (3000 rpm, 4° C., 20 minutes), this bacterial precipitate was washed and resuspended in 5 mM glucose and 5 mM HEPES buffer (500 μL, 1:1, pH=7.2). This bacterial suspension was heated at 100° C. for 15 minutes and centrifuged (13000 rpm, 25° C., 10 minutes). […] [*****Allen et al., Antimicrob. Agents Chemother. 1996, 40(10):2356-2362]; Liu et al., J. Am. Chem. Soc. 2001, 123:9916-9917.] The amount of UDP Mur N-Ac pentapeptide (19) was quantified by use of calibration curves for E. faecalis BM4166, and for E. faecium ATCC BAA-2317 based on the area under the curve (AUC).

[4] = test system: red blood cells (pig whole blood); assay: Hemolysis assay; format: cell-based; details: assay time extended to 24 hours
Experimental: The blood cells in pig whole blood (2 mL, Pel-Free Biologicals, non-sterile, sodium citrate) were harvested (3000 rpm, 4° C., 20 minutes), and the red blood precipitate was washed and resuspended in phosphate buffered saline (pH 7.4). This diluted red blood cell stock solution (384 μL) was incubated with the antibiotic solution in DMSO (16 μL) in a 1 mL microtube to achieve the final concentration of the test compounds. […]
The solution was diluted with phosphate buffer saline (pH 7.4, 200 μL) at 25° C. and centrifuged (3000 rpm, 4° C., 20 minutes). The supernatant (200 μL) was transferred to a microtiter plate. A positive control (0.2% vol % Triton® X-100, 100% total hemolysis) and the negative control (no antibiotic, 0% hemolysis) were prepared. A350 was measured using a microplate reader (Molecular Devices®, Max Gemini EX). The % hemolysis was determined by calculating the following equation shown below (eq. 1).
Although the differences in mammalian and bacterial cell wall composition are extensive, including the more highly anionic composition of the bacterial cell wall responsible for a preferential and differential cation binding, lysis of mammalian cell membranes (red blood cells) are potential off-target consequences of cationic compounds that impact bacterial cell membrane integrity. […]

[5] = test system: vancomycin-sensitive Staphylococcus aureus (VSSA strain ATCC 25923); details: previously reported data; cited from earlier work
[6] = test system: methicillin and oxacillin-resistant Staphylococcus aureus subsp. aureus (MRSA strain ATCC 43300); details: previously reported data; cited from earlier work
[7] = test system: vancomycin-resistant Enterococcus faecalis (VanA VRE, BM4166); details: BM 4166; previously reported data; cited from earlier work
[8] = test system: Enterococcus faecium (VanA VRE, ATCC BAA-2317); details: previously reported data; cited from earlier work
[9] = test system: vancomycin-resistant Enterococcus faecalis (VanB VRE, strain ATCC 51299); details: previously reported data; cited from earlier work
[10] = D-Ala-D-Lac versus D-Ala-D-Ala; cited from earlier work
[11] = test system: VanA VRE (E. faecalis BM 4166 and E. faecium ATCC BAA-2317); assay: Cell wall permeability assay (propidium iodide uptake); format: cell-based, Enterococcus faecalis; Enterococcus faecium; details: 10 μM compound
Text: The effect of the compounds on cell membrane permeability was examined by measuring cytoplasmic membrane uptake of the fluorescent probe propidium iodide in the same VanA vancomycin-resistant E. faecalis (BM 4166) and E. faecium (ATCC BAA-2317) strains. This fluorescent probe only enters cells with permeabilized cell membranes and is detected by the emission of fluorescence upon intracellular nucleic acid binding [Boulos et al., J Microbiol Methods 1999, 37(1):77-86].
Fresh, mid-log phase VanA VRE in pH 7.2 buffer at 25° C. were preincubated with propidium iodide (10 μM) for 5 minutes before the test compounds were added, monitoring the fluorescence emission at 617 nm (excitation at 535 nm) over time, both pre (5 minutes) and post (15 minutes) compound addition. Rapid and sustained increases in fluorescence intensity are observed immediately upon addition of test compounds that induce bacterial cell membrane permeability.
One day before a study was run, cultures of vancomycin-resistant Enterococcus faecalis (VanA VRE, BM4166) and Enterococcus faecium (VanA VRE, ATCC BAA-2317), were inoculated and grown in an orbital shaker at 37° C. in 100% brain-heart infusion broth for 12 hours. The above bacterial solution was subjected to a subculture to obtain fresh mid-log phase bacterial cells (total volume of bacterial suspension=7 mL, incubation time=6 hours, OD600=0.6). After the cultured bacteria were harvested (3000 rpm, 4° C., 20 minutes), the white bacterial precipitate was washed and resuspended in 5 mM glucose and 5 mM HEPES buffer (1:1, 500 μL, pH=7.2).
This bacterial suspension (130 μL) was charged into a 96-well black plate with a clear bottom (Corning 3650). The propidium iodide dye (10 μL, 150 μM DMSO solution) was added to the above suspension and the fluorescence was monitored at 25° C. for 5 minutes at 30 second intervals using a microplate reader (Molecular Devices®, Max Gemini EX) at an excitation wavelength of 535 nm and an emission wavelength of 617 nm. The test compound (150 μM, 10 μL) was added to the cell suspension and the fluorescence was monitored at 25° C. for an additional 15 minutes.

[12] = test system: VanA VRE (E. faecalis BM4166 and E. faecium ATCC BAA-2317); assay: Resistance development study (serial passaging at 0.5×MIC); format: cell-based, Enterococcus faecalis; Enterococcus faecium; details: 0.5×MIC serial exposure, MICs monitored daily
Experimental: However, an additional and even more important feature of the expression of multiple independent mechanisms of action is a mechanism's impact on the rate at which bacterial resistance may emerge.
The MICs of the vancomycin analogues against vancomycin-resistant Enterococcus faecalis (VanA VRE, BM4166) and Enterococcus faecium (VanA VRE, ATCC BAA-2317) were determined. […] A new MIC assay was performed with the same protocol. This process was repeated for 50 passages, and the fold increase in MIC was determined at each passage. [****Pollard et al., J. Antimicrob. Chemother. 2012, 67:2665-2672.]

Row | SMILES | Antimicrobial Activity, MIC, VanA E. faecalis ([1]; BM 4166) | antibiotic susceptibility profile of the strain [1] | Antimicrobial Activity, MIC, VanA E. faecium ([2]; ATCC BAA-2317) | antibiotic susceptibility profile of the strain ([2]; VanA E. faecium ATCC BAA-2317) | inhibition of bacterial cell wall synthesis (accumulation of 19) [3] | red blood cell hemolytic activity, extended exposure [4] | Antimicrobial Activity, MIC, sensitive S. aureus [5] | Antimicrobial Activity, MIC, MRSA S. aureus [6] | Antimicrobial Activity, MIC, VanA E. faecalis [7] | Antimicrobial Activity, MIC, VanA E. faecium [8] | Antimicrobial Activity, MIC, VanB E. faecalis [9] | reduction of binding affinity for the altered ligand [10] | MIC ([1]; Enterococcus faecalis, VRE, read-out: Antimicrobial Activity, MIC, VanA E. faecalis) | MIC ([2]; Enterococcus faecium, read-out: Antimicrobial Activity, MIC, VanA E. faecium) | induced cell membrane permeability (propidium uptake) [11] | emergence of resistance on serial passaging [12]
1 | CN[C@H](CC(C)C)C(=O)N[C@H]1C(=O)N[C@@H](CC(N)=O)C(=O)N[C@H]2C(=O)N[C@H]3C(=O)N[C@H](C(=O)N[C@H](C(=O)O)c4cc(O)cc(O)c4-c4cc3ccc4O)[C@H](O)c3ccc(c(Cl)c3)Oc3cc2cc(c3O[C@@H]2O[C@H](CO)[C@@H](O)[C@H](O)[C@H]2O[C@H]2C[C@](C)(N)[C@H](O)[C@H](C)O2)Oc2ccc(cc2Cl)[C@H]1O [Compound 1, vancomycin] | 250 µg/mL | resistant | 250 µg/mL | resistant | do not effectively inhibit bacterial cell wall synthesis | no different from the control tigecycline | 0.5 µg/mL | 0.5 µg/mL | 250 µg/mL | 250 µg/mL | 8 µg/mL | 1000 fold |  |  |  | 
2 | CCCCCCCCCCCCCC[N+](C)(C)CCCNC(=O)[C@H]1NC(=O)[C@H]2NC(=O)[C@@H](NC(=O)[C@@H]3NC(=O)[C@H](CC(N)=O)NC(=O)[C@H](NC(=O)[C@@H](CC(C)C)NC)[C@H](O)c4ccc(c(Cl)c4)Oc4cc3cc(c4OC3OC(CO)C(O)[C@H](O)[C@@H]3O[C@H]3CC(C)(N)[C@H](O)[C@H](C)O3)Oc3ccc(cc3Cl)[C@H]2O)c2ccc(O)c(c2)-c2c(O)cc(O)cc21 (stereo partly drawn) [Compound 12] |  |  |  |  |  | performed worse than the control daptomycin |  |  |  |  |  |  | 2 µg/mL | 2 µg/mL | produced pronounced, rapid cell membrane permeability | 
3 | CCCCCCCCCC(=O)N[C@@H](Cc1c[nH]c2ccccc12)C(=O)N[C@H](CC(N)=O)C(=O)N[C@@H](CC(=O)O)C(=O)N[C@@H]1C(=O)NCC(=O)N[C@@H](CCCN)C(=O)N[C@@H](CC(=O)O)C(=O)N[C@H](C)C(=O)N[C@@H](CC(=O)O)C(=O)NCC(=O)N[C@H](CO)C(=O)N[C@@H]([C@H](C)CC(=O)O)C(=O)N[C@@H](CC(=O)c2ccccc2N)C(=O)O[C@@H]1C [daptomycin] |  | sensitive |  |  |  |  |  |  |  |  |  |  |  |  |  | arises much faster and is much more pronounced; also recorded: arise much faster and was more pronounced
